Read-outs that look alike come from different tables or passages of the source.
Columns and labels:
A431 cells = format: cell-based, human; details: chloroquine coadministration, with cetuximab-saporin (FIG. 52)
Procedure: Cells were seeded in a 96 well plate at 5.000-10.000 c/w in 100 μL/well and incubated overnight at 37° C. […] The media was removed from the cell culture plate and replaced by 180 μL culture media, followed by the addition of 20 μL treatment-mix/well. […] In the case that endosomal acidification inhibitors (chloroquine (Sigma Aldrich) or bafilomycin A1 (Enzo Life Sciences)) were used, the cell culture media in step 1 of treatment was replaced by 180 μL media containing 1 μM chloroquine or 0.2 μM bafilomycin A1. The plate was incubated for 1 hour at 37° C., before the 10× treatment-mix samples were added. The remaining incubation and treatment steps were performed according to standard procedures known in the field.

[1] = test system: EGFR expressing cells (e.g. A431, HeLa); format: cell-based; parameters: key: Cell killing activity (+ or −); Cell killing activity (+ or −)
Source text: The saponin is either linked to the ligand directly, or via a (cleavable) linker, via a scaffold, a carrier protein, etc., etc.

[2] = pH dependent hydrolysis of the hydrazone bond (MALDI-TOF-MS); format: physicochemical; details: HCl solution at pH 3
HeLa cells [3] = assay: Cell-based bioassay of chemically modified SO1861 with dianthin-EGF (Example 8)
Procedure: HeLa cells were incubated for 72 h with the following constructs and cell viability before and after the 72 h-incubation was assessed. In the experiments, cells were exposed to 1.5 μM dianthin-EGF conjugate. A negative control were cells incubated with buffer vehicle and 10 microgram/ml saponin, without dianthin-EGF. Cell viability was set to 100% for the control in which both saponin and EGF-dianthin were omitted. […] Cell viability after 72 h was essentially 0%. For the chemically modified saponin variants, 10 microgram/ml saponin was tested in combination with 1.5 μM dianthin-EGF.

HeLa cells [4] = assay: Cell viability assay, inhibition of SO1861-mediated endosomal escape by polymeric structures (Example 19); format: cell-based; details: SO1861 series + […] dianthin-EGF, 500 nM PAMAM (derivative) or chloroquine, 667 nM dendron
NIH-3T3 cells = details: saporins; cited from earlier work
[5] = combinatory treatment with saponins; cited from earlier work
mammalian cells = assay: Cell-based bioassay of endosomal escape enhancement by QS-21; details: 2.5 microgram/ml; effector moiety EGF-dianthin
Source text: The effector moiety exposed to the cells was EGF-dianthin.

[6] = test system: SK-BR-3, JIMT-1, MDA-MB-468, A431, CaSki, HeLa, A2058, BT-474; assay: Relative cell viability, mAb / toxin / mAb-toxin monotherapy (FIG. 11); format: cell-based; parameters: dose or concentration left out as unconfirmed; details: panel of cell lines
Procedure: After treatment the cells were incubated for 72 hr at 37° C. before the cell viability was determined by a MTS-assay, performed according to the manufacturer's instruction (CellTiter 96® AQueous One Solution Cell Proliferation Assay, Promega). Briefly, the MTS solution was diluted 20× in DMEM without phenol red (PAN-Biotech GmbH) supplemented with 10% FBS (PAN-Biotech GmbH). […] Subsequently, the optical density at 492 nm was measured on a Thermo Scientific Multiskan FC plate reader (Thermo Scientific). For quantification the background signal of ‘medium only’ wells was subtracted from all other wells, before the ratio of untreated/treated cells was calculated, by dividing the background corrected signal of untreated wells over the background corrected signal of the treated wells.

Compound: CC(=O)OC1C(C)OC(OC2C(C)OC(OC(=O)[C@]34CCC(C)(C)CC3C3=CCC5[C@@]6(C)CC[C@H](OC7OC(C(=O)O)C(O)C(OC8OCC(O)C(O)C8O)C7OC7OC(CO)C(O)C(O)C7O)[C@@](C)(/C=N/NC(=O)CCCCCN7C(=O)C=CC7=O)C6CC[C@@]5(C)[C@]3(C)C[C@H]4O)C(OC3OC(C)C(OC4OCC(O)C(OC5OC(CO)C(O)C(O)C5O)C4O)C(O)C3O)C2O)C(O)C1OC1OCC(O)C(O)C1O (some centres unmarked) [SO1861-EMCH]
- activity when endosomal acidification is blocked (in words) (A431 cells): strongly reduces the activity
- Cell killing activity ([1]; 10 μg/ml SO1861 (conjugate) + […] EGFdianthin): +
- Cell killing activity ([1]; 10 μg/ml SO1861 (conjugate), without EGFdianthin): −
- hydrolysis of the hydrazone bond (in words) [2]: responsive towards hydrolysis and gets cleaved
- cell viability (in words) (HeLa cells [3]): reduced cell viability

Compound: CCN(CC)CCCC(C)Nc1ccnc2cc(Cl)ccc12 (centres unmarked) [chloroquine]
- inhibition of SO1861-mediated endosomal escape of the targeted toxin (in words) (HeLa cells [4]): inhibit the SO1861-mediated endosomal escape of the targeted toxin

Compound: CC1(C)[C@@H](O[C@H]2O[C@H](C(=O)O)[C@@H](O)[C@H](O)[C@H]2O[C@@H]2O[C@H](C(=O)O)[C@@H](O)[C@H](O)[C@H]2O)CC[C@]2(C)[C@H]3C(=O)C=C4[C@@H]5C[C@@](C)(C(=O)O)CC[C@]5(C)CC[C@@]4(C)[C@]3(C)CC[C@@H]12 [glycyrrhizic acid]
- enhancing effect on toxin toxicity (in words) (NIH-3T3 cells): do hardly have any positive effect

Compound: Pseudomonas exotoxin A: bacterial toxin
- enhancement of cytotoxicity by saponins (in words) [5]: remained unaffected

Compound: QS-21
- endosomal escape enhancement (in words) (mammalian cells): capable of enhancing endosomal escape

Compound: helianthoside
- enhancing effect on toxin toxicity (in words) (NIH-3T3 cells): do hardly have any positive effect

Compound: saporin
- relative cell viability (in words) [6]: do not or hardly have any influence on cell viability
